Assay results: US20250206732A1, “COMPOUNDS AND METHODS FOR THE TARGETED DEGRADATION OF KRAS” (Arvinas Operations, Inc., priority 2022, published 2025)

How the values were obtained:
[1] = biological target: T1, AsPC-1 HiBiT-KRASG12D (Homo sapiens, UniProt P01116, G12D); experiment: HiBiT degradation assay (G12D), AsPC-1 HiBiT-KRASG12D cells; format: cell-based; conditions: 24 hours treatment; for Dmax: ASPC1, AsPC-1 HiBiT-KRASG12D cells, maximum degradation observed; for DC50: AsPC-1 HiBiT-KRASG12D cells, HiBiT luminescence
T1 construct: insert the HiBiT tag onto the N-terminus of one or more of the endogenous KRAS alleles; endogenous in cells; host or cells: AsPC-1 (ATCC CRL-1682), CRISPR-Cas9 knock-in clone, one tagged allele
T1 sequence (P01116 1-188 isoform P01116-2 G12D): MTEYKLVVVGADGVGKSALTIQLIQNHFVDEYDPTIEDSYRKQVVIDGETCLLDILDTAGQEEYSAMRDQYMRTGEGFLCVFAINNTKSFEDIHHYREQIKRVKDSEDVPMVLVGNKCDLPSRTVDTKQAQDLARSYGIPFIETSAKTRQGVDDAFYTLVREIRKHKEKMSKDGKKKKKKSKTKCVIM
Summary of the method: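 Endogenous KRASG12D levels were measured via an N-terminal HiBiT tag knocked into AsPC-1 cells. Cells received compound titrations for 24 hours, and HiBiT luminescence was detected after a 45-minute lytic reagent incubation at room temperature.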

[2] = biological target: T2, SW1573 HiBiT-KRASG12C (Homo sapiens, UniProt P01116, G12C); experiment: HiBiT degradation assay (G12C), SW1573 HiBiT-KRASG12C cells; format: cell-based; conditions: 24 hours treatment; for Dmax: maximum degradation observed;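 for SW1573 HiBiT-KRASG12C DC50 (nM): Letter grades: C is 1000 to 3000 nM and D is above 3000 nM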
T2 construct: expressed in transfected cells
T2 sequence (P01116 1-188 isoform P01116-2 G12C): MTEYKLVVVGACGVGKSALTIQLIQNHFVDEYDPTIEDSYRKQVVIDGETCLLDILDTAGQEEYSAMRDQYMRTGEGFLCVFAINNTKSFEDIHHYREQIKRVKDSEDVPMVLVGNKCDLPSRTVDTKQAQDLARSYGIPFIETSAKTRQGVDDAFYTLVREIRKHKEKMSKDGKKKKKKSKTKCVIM
Description: Reagents. SW1573 (CRL-2170), AsPC-1 (CRL-1682), and SW620 (CCL-227) cells were purchased from ATCC. SW1573 cells are homozygous for the G12C mutation in KRAS, AsPC-1 cells are homozygous for the G12D mutation, and SW620 cells are homozygous for the G12V mutation. SW1573 cells were cultured in DMEM+F12+Glutamax (+Sodium Bicarbonate, +sodium pyruvate, ThermoFisher scientific, #10565) supplemented with 10% FBS (ThermoFisher scientific, #2060357) and 1% Antibiotic-Antimycotic (ThermoFisher scientific, #15240096). AsPC-1 cells were cultured in GIBCO RPMI-1640 (ThermoFisher scientific, catalog #61870-036 with Glutamax, No HEPES, No Na Pyruvate) supplemented with 10% FBS (ThermoFisher scientific, catalog #2060357) and 1× Penicillin-Streptomycin (ThermoFisher scientific, catalog #15140122, 10000 U/ml, 100×). SW620 cells were cultured in DMEM Glutamax (ThermoFisher scientific, catalog #10566016) supplemented with 10% FBS (ThermoFisher scientific, catalog #2060357) and 1× Penicillin-Streptomycin (ThermoFisher scientific, catalog #15140122, 10000 U/ml, 100×). For degradation assays, 384 well plates were used. Alamar blue was purchased from ThermoFisher scientific (A50101) and used according to manufacturer instructions. The Nano-Glo® HiBiT Lytic Detection System and Nano-Glo® HiBiT Blotting System were purchased from Promega (#N3050 and #N2410) and used according to manufacturer instructions.
HiBiT-tagged cell line generation. To create the SW1573 HiBiT-KRASG12C cell line, the nucleotide sequence encoding the 11 amino acid HiBiT tag from Promegal was appended to the N-terminus of the KRASG12C coding sequence. This synthesized DNA was cloned into a modified pcDNA3.1 vector under the control of the thymidine kinase (TK) promoter. This HiBiT-KRASG12C expressing plasmid was transfected into parental SW1573 cells and colonies were selected using 400 μg/mL zeocin. The resulting clonal lines were screened for expression of HiBiT-KRASG12C protein using Nano-Glo® HiBiT Blotting System. A luminescent band of the correct size for HiBiT-KRASG12C was detected in several clones. Clone E6 was selected for further studies.
HiBiT degradation assays (G12C and G12D). Either SW1573 HiBiT-KRasG12C or AsPC-1 HiBiT-KRasG12D cells were plated at 9000 or 15,000 cells/well in a 384 well plate (Corning #3770). Compounds of the present disclosure and positive controls were diluted in the appropriate cell media and applied to the plated cells resulting in a final concentration titration of 10 μM to 508 pM in 0.5% DMSO. Gambogic acid was used as a positive control for cytotoxicity and titrated from 10 μM to 78 nM. All assays were performed in triplicate. Cells were treated with compounds for 24 hours at 37° C. in an incubator containing 5% CO2. Following treatment, alamar blue was used to determine if any compounds led to a loss in cell viability after 24 hours. The 10× alamar blue reagent was added to a final concentration of 1× as recommended by the manufacturer and cells were returned to the incubator for 4 hours. Plates were then allowed to equilibrate to room temperature and fluorescence was measured using a Perkin-Elmer EnVision. After completion of the fluorescence read, the liquid from each well was removed and the cells were washed with PBS. The Nano-Glo® HiBiT detection reagent was prepared according to the manufacturer's instructions and added to each well after the PBS wash was removed. Following incubation at room temperature for 45 minutes, the luminescence was read using the ultra-sensitive luminescence aperture on the Envision instrument.
Data analysis. Fluorescence values from the alamar blue treatment were normalized to the DMSO-only control for each compound titration. […]

| SMILES | Dmax [1] | DC50 [1] | DC50 ([2]; HiBiT luminescence) | SW1573 HiBiT-KRASG12C DC50 (nM) ([2]; HiBiT luminescence) | Dmax [2] |
| --- | --- | --- | --- | --- | --- |
| CCc1cccc2cc(O)cc(-c3ncc4c(N5CC6CCC(C5)N6)nc(OCCN5CCC(COc6cc([C@@H](C(=O)N7C[C@H](O)C[C@H]7C(=O)N[C@@H](C)c7ccc(-c8scnc8C)cc7)C(C)C)on6)CC5)nc4c3F)c12 [Compound 8, (2S,4R)-1-[(2S)-2-[3-[[1-[2-[4-(3,8-diazabicyclo[3.2.1]octan-3-yl)-7-(8-ethyl-3-hydroxy-1-naphthyl)-8-fluoro-pyrido[4,3-d]pyrimidin-2-yl]oxyethyl]-4-piperidyl]methoxy]isoxazol-5-yl]-3-methyl-butanoyl]-4-hydroxy-N-[(1S)-1-[4-(4-methylthiazol-5-yl)phenyl]ethyl]pyrrolidine-2-carboxamide] | 20 to 60% | 1000 to 3000 nM | > 3000 nM |  |  |
| Cc1ncsc1-c1ccc([C@H](C)NC(=O)[C@@H]2C[C@@H](O)CN2C(=O)[C@@H](c2cc(OCC3CCN(CCOc4nc(N5CC6CCC(C5)N6)c5cnc(-c6cc(O)cc7ccccc67)c(F)c5n4)CC3)no2)C(C)C)cc1 [Compound 22, (2S,4R)-1-[(2R)-2-[3-[[1-[2-[4-(3,8-diazabicyclo[3.2.1]octan-3-yl)-8-fluoro-7-(3-hydroxy-1-naphthyl)pyrido[4,3-d]pyrimidin-2-yl]oxyethyl]-4-piperidyl]methoxy]isoxazol-5-yl]-3-methyl-butanoyl]-4-hydroxy-N-[(1S)-1-[4-(4-methylthiazol-5-yl)phenyl]ethyl]pyrrolidine-2-carboxamide] | 20 to 60% | 600 to 1000 nM |  | C/D* |  |
| CCc1cccc2cc(O)cc(-c3ncc4c(N5CC6CCC(C5)N6)nc(OCCN5CCC(COC6(C(=O)N[C@H](C(=O)N7C[C@H](O)C[C@H]7C(=O)N[C@@H](C)c7ccc(-c8scnc8C)cc7)C(C)(C)C)CC6)CC5)nc4c3F)c12 [Compound 9, (2S,4R)-1-[(2S)-2-[[1-[[1-[2-[4-(3,8-diazabicyclo[3.2.1]octan-3-yl)-7-(8-ethyl-3-hydroxy-1-naphthyl)-8-fluoro-pyrido[4,3-d]pyrimidin-2-yl]oxyethyl]-4-piperidyl]methoxy]cyclopropanecarbonyl]amino]-3,3-dimethyl-butanoyl]-4-hydroxy-N-[(1S)-1-[4-(4-methylthiazol-5-yl)phenyl]ethyl]pyrrolidine-2-carboxamide] | 80 to 100% | < 600 nM | > 3000 nM |  |  |
| C#Cc1cccc2cc(O)cc(-c3ncc4c(N5CC6CCC(C5)N6)nc(OCCN5CCC6(CC5)CN(c5cc([C@H](C(=O)N7C[C@H](O)C[C@H]7C(=O)N[C@@H](C)c7ccc(-c8scnc8C)cc7)C(C)C)on5)C6)nc4c3F)c12 [Compound 36, (2S,4R)-1-[(2R)-2-[3-(7-{2-[(4-{3,8-diazabicyclo[3.2.1]octan-3-yl}-7-(8-ethynyl-3-hydroxynaphthalen-1-yl)-8-fluoropyrido[4,3-d]pyrimidin-2-yl)oxy]ethyl}-2,7-diazaspiro[3.5]nonan-2-yl)-1,2-oxazol-5-yl]-3-methylbutanoyl]-4-hydroxy-N-[(1S)-1-[4-(4-methyl-1,3-thiazol-5-yl)phenyl]ethyl]pyrrolidine-2-carboxamide] | 80 to 100% | < 600 nM | > 3000 nM |  |  |
| CCc1cccc2cc(O)cc(-c3ncc4c(N5CC6CCC(C5)N6)nc(OCCN5CCC6(CC5)CN(c5cc([C@H](C(=O)N7C[C@H](O)C[C@H]7C(=O)N[C@@H](C)c7ccc(-c8scnc8C)cc7)C(C)C)on5)C6)nc4c3F)c12 [Compound 16, (2S,4R)-1-[(2R)-2-[3-[7-[2-[4-(3,8-diazabicyclo[3.2.1]octan-3-yl)-7-(8-ethyl-3-hydroxy-1-naphthyl)-8-fluoro-pyrido[4,3-d]pyrimidin-2-yl]oxyethyl]-2,7-diazaspiro[3.5]nonan-2-yl]isoxazol-5-yl]-3-methyl-butanoyl]-4-hydroxy-N-[(1S)-1-[4-(4-methylthiazol-5-yl)phenyl]ethyl]pyrrolidine-2-carboxamide] | 80 to 100% | < 600 nM | > 3000 nM |  |  |
| Cc1ncsc1-c1ccc([C@H](C)NC(=O)[C@@H]2C[C@@H](O)CN2C(=O)[C@@H](c2cc(OCC3CCN(CCOc4nc(N5CC6CCC(C5)N6)c5cnc(-c6cc(O)cc(Cl)c6C6CC6)c(F)c5n4)CC3)no2)C(C)C)cc1 [Compound 43, (2S,4R)-1-[(2R)-2-(3-{[1-(2-{[7-(3-chloro-2-cyclopropyl-5-hydroxyphenyl)-4-{3,8-diazabicyclo[3.2.1]octan-3-yl}-8-fluoropyrido[4,3-d]pyrimidin-2-yl]oxy}ethyl)piperidin-4-yl]methoxy}-1,2-oxazol-5-yl)-3-methylbutanoyl]-4-hydroxy-N-[(1S)-1-[4-(4-methyl-1,3-thiazol-5-yl)phenyl]ethyl]pyrrolidine-2-carboxamide] | 80 to 100% | < 600 nM | > 3000 nM |  | 20 to 60% |
| CCc1cccc2cc(O)cc(-c3ncc4c(N5CC6CCC(C5)N6)nc(OCCN5CCC(COc6cc([C@H](C(=O)N7C[C@H](O)C[C@H]7C(=O)N[C@@H](C)c7ccc(-c8scnc8C)cc7)C(C)C)on6)CC5)nc4c3F)c12 [Compound 20, (2S,4R)-1-[(2R)-2-[3-[[1-[2-[4-(3,8-diazabicyclo[3.2.1]octan-3-yl)-7-(8-ethyl-3-hydroxy-1-naphthyl)-8-fluoro-pyrido[4,3-d]pyrimidin-2-yl]oxyethyl]-4-piperidyl]methoxy]isoxazol-5-yl]-3-methyl-butanoyl]-4-hydroxy-N-[(1S)-1-[4-(4-methylthiazol-5-yl)phenyl]ethyl]pyrrolidine-2-carboxamide] | 80 to 100% | < 600 nM | > 3000 nM |  |  |
| CCc1cccc2cc(O)cc(-c3ncc4c(N5CC6CCC(C5)N6)nc(OC[C@@]56CCCN5[C@H](COCC(=O)N[C@H](C(=O)N5C[C@H](O)C[C@H]5C(=O)N[C@@H](C)c5ccc(-c7scnc7C)cc5)C(C)(C)C)CC6)nc4c3F)c12 [Compound 2, (2S,4R)-1-[(2S)-2-(2-{[(3S,7aS)-7a-{[(4-{3,8-diazabicyclo[3.2.1]octan-3-yl}-7-(8-ethyl-3-hydroxynaphthalen-1-yl)-8-fluoropyrido[4,3-d]pyrimidin-2-yl)oxy]methyl}-hexahydro-1H-pyrrolizin-3-yl]methoxy}acetamido)-3,3-dimethylbutanoyl]-4-hydroxy-N-[(1S)-1-[4-(4-methyl-1,3-thiazol-5-yl)phenyl]ethyl]pyrrolidine-2-carboxamide] | 80 to 100% | < 600 nM | 1000 to 3000 nM |  | 20 to 60% |
| CCc1cccc2cc(O)cc(-c3ncc4c(N5CC6CCC(C5)N6)nc(OC[C@]56CCCN5[C@@H](COC(=O)N5CCN(c7cc([C@@H](C(=O)N8C[C@H](O)C[C@H]8C(=O)N[C@@H](C)c8ccc(-c9scnc9C)cc8)C(C)C)on7)CC5)CC6)nc4c3F)c12 [Compound 6] | < 20% | 1000 to 3000 nM | > 3000 nM |  |  |
